How the values were obtained:
Details in all cases: exposure time: 72 h
[1] = tested on: E31 (patient-derived glioblastoma stem cells of proneural subtype); assay: phenotypic distance (Euclidean, principal components) from DMSO controls (arbitrary units); higher = stronger morphological change
[2] = tested on: E28 (patient-derived glioblastoma stem cells of classical subtype); assay: as above
[3] = tested on: E57 (patient-derived glioblastoma stem cells of mesenchymal subtype); assay: as above
[4] = tested on: FT3469 (normal neural stem cell line); assay: as above
[5] = tested on: E21 (patient-derived glioblastoma stem cells of mesenchymal subtype); assay: as above
[6] = tested on: E13 (patient-derived glioblastoma stem cells of classical subtype); assay: as above
[7] = tested on: E34 (patient-derived glioblastoma stem cells of proneural subtype); assay: as above
[8] = tested on: E31; assay: surviving fraction (nuclei count normalised to DMSO); higher = more cells surviving (less toxic)
[9] = tested on: E28; assay: as above
[10] = tested on: E57; assay: as above
[11] = tested on: FT3469; assay: as above
[12] = tested on: E21; assay: as above
[13] = tested on: E13; assay: as above
[14] = tested on: E34; assay: as above
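For phenotypic distance (Euclidean, principal components) from DMSO controls in this document: cell Painting imaging in 384-well plates, CellProfiler features reduced to at least 20 principal components, Euclidean distance versus same-plate DMSO vehicle wells (0.1% v/v), median over six images per well.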
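For surviving fraction (nuclei count normalised to DMSO) in this document: nuclei counted by high-content imaging of Hoechst-stained cells in laminin-coated 384-well plates, relative to 0.1% DMSO vehicle wells, with staurosporine as cell-death control.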

COc1cccc2c(NCc3ccccc3)nc(-n3c(N)nc4ccccc43)nc12 [ML240]
Details	phenotypic distance	surviving fraction
[1], 4.1 nM	0.647	–
[1], 12.3 nM	0.799	–
[1], 37 nM	0.394	–
[1], 111.1 nM	0.491	–
[1], 333.3 nM	0.297	–
[1], 1000 nM	6.73	–
[1], 3000 nM	18.7	–
[2], 4.1 nM	0.413	–
[2], 12.3 nM	0.802	–
[2], 37 nM	0.589	–
[2], 111.1 nM	0.977	–
[2], 333.3 nM	0.531	–
[2], 1000 nM	5.33	–
[2], 3000 nM	7.6	–
[3], 4.1 nM	0.375	–
[3], 12.3 nM	0.566	–
[3], 37 nM	0.385	–
[3], 111.1 nM	0.473	–
[3], 333.3 nM	1.84	–
[3], 1000 nM	4.85	–
[3], 3000 nM	6.71	–
[4], 4.1 nM	0.656	–
[4], 12.3 nM	0.706	–
[4], 37 nM	0.538	–
[4], 111.1 nM	1.16	–
[4], 333.3 nM	0.736	–
[4], 1000 nM	1.85	–
[4], 3000 nM	11.7	–
[5], 4.1 nM	0.814	–
[5], 12.3 nM	0.418	–
[5], 37 nM	0.532	–
[5], 111.1 nM	0.655	–
[5], 333.3 nM	0.51	–
[5], 1000 nM	1.08	–
[5], 3000 nM	13.5	–
[6], 4.1 nM	0.694	–
[6], 12.3 nM	0.435	–
[6], 37 nM	0.787	–
[6], 111.1 nM	0.753	–
[6], 333.3 nM	0.67	–
[6], 1000 nM	8.35	–
[6], 3000 nM	10.2	–
[7], 4.1 nM	0.596	–
[7], 12.3 nM	0.636	–
[7], 37 nM	0.602	–
[7], 111.1 nM	0.587	–
[7], 333.3 nM	0.358	–
[7], 1000 nM	1.49	–
[7], 3000 nM	14.2	–
[8], 4.1 nM	–	0.934
[8], 12.3 nM	–	1.36
[8], 37 nM	–	1.1
[8], 111.1 nM	–	1.17
[8], 333.3 nM	–	1.19
[8], 1000 nM	–	0.0987
[8], 3000 nM	–	0
[9], 4.1 nM	–	1.09
[9], 12.3 nM	–	0.996
[9], 37 nM	–	1.01
[9], 111.1 nM	–	1.17
[9], 333.3 nM	–	1.03
[9], 1000 nM	–	0.32
[9], 3000 nM	–	0.0108
[10], 4.1 nM	–	0.984
[10], 12.3 nM	–	0.993
[10], 37 nM	–	1.05
[10], 111.1 nM	–	0.972
[10], 333.3 nM	–	1.08
[10], 1000 nM	–	0.255
[10], 3000 nM	–	0.00471
[11], 4.1 nM	–	0.963
[11], 12.3 nM	–	1.03
[11], 37 nM	–	1.15
[11], 111.1 nM	–	1.33
[11], 333.3 nM	–	1.25
[11], 1000 nM	–	0.68
[11], 3000 nM	–	0.00884
[12], 4.1 nM	–	1.05
[12], 12.3 nM	–	1.01
[12], 37 nM	–	1.02
[12], 111.1 nM	–	1.1
[12], 333.3 nM	–	1.03
[12], 1000 nM	–	1.11
[12], 3000 nM	–	0.0028
[13], 4.1 nM	–	1.1
[13], 12.3 nM	–	0.999
[13], 37 nM	–	1.1
[13], 111.1 nM	–	1.02
[13], 333.3 nM	–	0.985
[13], 1000 nM	–	0.147
[13], 3000 nM	–	0.00521
[14], 4.1 nM	–	1.18
[14], 12.3 nM	–	1.12
[14], 37 nM	–	1.04
[14], 111.1 nM	–	1.05
[14], 333.3 nM	–	1.18
[14], 1000 nM	–	0.54
[14], 3000 nM	–	0.00732

Reference: the supplement of paper PMC13207355
